{
  "source": "patent US12162855B2",
  "about": "“Tetrahydroquinolino derivatives for the treatment of metastatic and chemoresistant cancers” (THE TRUSTEES OF PRINCETON UNIVERSITY, priority 2018, dated 2024)",
  "key": {"[1]": {"target": "T1, ALDH1a3 (Homo sapiens, UniProt P47895)", "T1 construct": "lentiviral vectors containing either the vector backbone or full-length human Aldh1a3; expressed in transfected cells; host or cells: SUM159-M1a (A1) and SUM159 (A7) breast cancer cells, lentiviral pLex vector, puromycin selection", "T1 sequence (P47895 1-512)": "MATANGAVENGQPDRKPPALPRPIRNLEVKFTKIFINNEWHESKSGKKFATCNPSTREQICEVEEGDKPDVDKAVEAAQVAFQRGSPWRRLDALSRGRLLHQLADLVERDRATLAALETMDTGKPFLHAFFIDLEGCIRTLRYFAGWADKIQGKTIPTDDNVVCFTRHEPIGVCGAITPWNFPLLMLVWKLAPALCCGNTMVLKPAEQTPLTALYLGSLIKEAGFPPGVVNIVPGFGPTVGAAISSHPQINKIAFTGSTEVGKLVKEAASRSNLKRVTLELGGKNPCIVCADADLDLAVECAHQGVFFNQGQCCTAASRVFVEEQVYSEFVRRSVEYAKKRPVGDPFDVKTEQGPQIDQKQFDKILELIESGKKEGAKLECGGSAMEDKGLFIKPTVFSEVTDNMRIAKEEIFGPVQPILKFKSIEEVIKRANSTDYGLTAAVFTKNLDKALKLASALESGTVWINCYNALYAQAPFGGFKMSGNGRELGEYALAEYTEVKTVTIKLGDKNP", "test": "ALDEFLUOR assay in 293T cells transiently transfected with human Aldh1a3", "assay_type": "cell-based", "details": "293T cells transfected with human Aldh1a3", "description": "(§1) The coding sequences of Aldh1a1, Aldh1a2, Aldh1a3 and Aldh3a1 were cloned from cDNA made from pooled human reference RNA samples. Cloned sequences flanked by Age1 and Xho1 restriction sites were inserted into the pLex lentiviral plasmid. Clones were sequenced and compared against NCBI expressed sequence tags (ESTs) for accuracy. Viral production of each enzyme was performed by transfection into the 293T packaging cell line using PEI along with PsPax2 and VSVG packaging vectors. Viruses were collected and filtered at 0.45 μm, then cells were transduced using polybrene (8 μg/mL) for 12 hours, followed by culture with 1 μg/mL puromycin for the duration of experiments. All viral transduction and selection was performed on a cell population-wide basis.\n(§2) Cells were counted, centrifuged and resuspended at 1,000,000 cells/mL in ALDEFLUOR™ buffer (Stemcell Technologies). ALDEFLUOR™ substrate (Stemcell Technologies, 1:200) and test compound or 1 mM DEAB were added to cell suspension and incubated at 37° C. for 45 minutes with vortexing every 15 minutes. Cells were centrifuged and resuspended in ALDEFLUOR™ buffer with DAPI at 5 μg/mL. Samples were analyzed with the BD LSR2 flow cytometry platform. Gating was performed using DEAB as a negative control."}, "[2]": {"test": "Toxicity experiments in C57Bl6 mice (IP)", "assay_type": "in vivo", "description": "All mice were originally ordered from the Jackson Laboratory (Bar Harbor, ME) and breeding was conducted in a specific pathogen-free (SPF) barrier facility. Toxicity experiments were performed on 8-12-week old male and female C57B16 mice. MBE1 was dissolved at 50 mg/mL in DMSO followed by a […] into Kolliphor EL, followed by a 1:5 dilution into PBS to yield a 5 mg/ml MBE1 solution, (10% DMSO, 10% Kolliphor EL, 80% PBS). This was administered via IP injection at ascending doses from 12.5 to 200 mg/kg body mass in a set of 3 mice at 24 h intervals. Body condition score, food uptake, fecal/urine production, behavior and body weight were measured as toxicity readouts. Five mice were then treated every 3 days with 25 mg/kg MBE1 for 18 days."}, "[3]": {"target": "T2, Aldh1a1 (Homo sapiens, UniProt P00352)", "T2 construct": "expressed in transfected cells; host or cells: MCF7, lentiviral pLex vector", "T2 sequence (P00352 1-501)": "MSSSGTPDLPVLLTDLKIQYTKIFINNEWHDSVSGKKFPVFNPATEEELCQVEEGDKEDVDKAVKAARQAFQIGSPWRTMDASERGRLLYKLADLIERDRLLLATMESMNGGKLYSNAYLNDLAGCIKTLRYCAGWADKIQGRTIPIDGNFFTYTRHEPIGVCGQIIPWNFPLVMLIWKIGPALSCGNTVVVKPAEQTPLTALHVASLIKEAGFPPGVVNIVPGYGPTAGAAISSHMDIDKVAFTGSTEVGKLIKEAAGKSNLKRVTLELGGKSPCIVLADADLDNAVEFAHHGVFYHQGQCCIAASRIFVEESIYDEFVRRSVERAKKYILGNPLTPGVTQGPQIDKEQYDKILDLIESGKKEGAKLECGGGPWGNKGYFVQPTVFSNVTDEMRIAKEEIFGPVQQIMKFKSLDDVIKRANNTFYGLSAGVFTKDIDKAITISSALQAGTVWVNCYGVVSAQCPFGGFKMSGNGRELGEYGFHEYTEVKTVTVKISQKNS", "test": "ALDEFLUOR assay in MCF7 cells transduced with human Aldh1a1", "assay_type": "cell-based", "details": "concentrations below 10 μM", "description": "as §1, with “[…].” for “Viral production of each enzyme was performed by transfection into the 293T packaging cell line using PEI along with PsPax2 and VSVG packaging vectors.”\nas §2"}},
  "data": [
    {"smiles": "CCc1ccccc1C(=O)Nc1cc2c(cc1F)NC(=O)CC2", "note": "[MBE1.5, 2-ethyl-N-(7-fluoro-2-oxo-1,2,3,4-tetrahydroquinolin-6-yl)benzamide]", "values": [
      {"measurement": "inhibition of Aldh1a3 activity (FIG. 2B)", "setting": "[1]", "value": "effective at inhibiting Aldh1a3 activity"}
    ]},
    {"smiles": "CCc1cnccc1C(=O)Nc1cc2c(cc1F)NC(=O)CC2", "note": "[MBE1, 3-ethyl-N-(7-fluoro-2-oxo-1,2,3,4-tetrahydroquinolin-6-yl)isonicotinamide]", "values": [
      {"measurement": "chronic toxicity (body condition score, food uptake, fecal/urine production, behavior, body weight)", "setting": "[2]; 25 mg/kg every 3 days for 18 days", "value": "Neither experiment showed any indication of either acute or chronic toxicity"},
      {"measurement": "acute toxicity (body condition score, food uptake, fecal/urine production, behavior, body weight)", "setting": "[2]; ascending doses 12.5 to 200 mg/kg at 24 h intervals", "value": "Neither experiment showed any indication of either acute or chronic toxicity"},
      {"measurement": "inhibition of Aldh1a1 activity (FIG. 2A)", "setting": "[3]", "value": "does not inhibit"}
    ]}
  ]
}
